In patent US7576053B2, “Methods and compositions for treating degenerative bone disorders” (Rigel Pharmaceuticals, Inc., priority 2005, dated 2009):

Assays:
Format in all cases: in vivo
[1] = system: rat collagen induced arthritis (CIA) model; experiment: Rat CIA model, histopathology of hind paw bone sections (safranin-O)
Excerpt: (§1) Upper left—naïve rat; upper right—vehicle rat; lower left—vehicle rat; lower right—compound 1007 treated rat. Micrographs are safranin-O stained sections of hind ankle paws of CIA rats, magnification 40×. To examine effect of Syk inhibitor 2,4-pyrimidinediamine compound in preventing bone degeneration, a rat collagen induced arthritis model was used (see, e.g., WO 2004/014382, incorporated herein by reference). Rats were immunized with bovine collagen II on day 0 and boosted on day 7. […] Animals were subsequently treated b.i.d. with inhibitor compound or vehicle alone. After 18 days of treatment, hind paw bone structure and integrity were evaluated by X-rays, histopathology, and serum bone marker COMP.

[2] = system: cartilage oligometrix matrix protein (COMP); experiment: Rat CIA model, serum bone marker COMP; settings: FIG. 4
Procedure: as §1, with “To” for “Upper left—naïve rat; upper right—vehicle rat; lower left—vehicle rat; lower right—compound 1007 treated rat. Micrographs are safranin-O stained sections of hind ankle paws of CIA rats, magnification 40×. To”

[3] = system: rat collagen induced arthritis (CIA) model; experiment: Rat collagen induced arthritis (CIA) model, hindlimb radiographs scored blindly; settings: b.i.d., 18 days of treatment
Excerpt: Data are the means±standard error, where n=13 per group, except for naïve (n=4). Radiographs of hindlimbs were obtained at the conclusion of the study and scored blindly. […] To examine effect of Syk inhibitor 2,4-pyrimidinediamine compound in preventing bone degeneration, a rat collagen induced arthritis model was used (see, e.g., WO 2004/014382, incorporated herein by reference). Rats were immunized with bovine collagen II on day 0 and boosted on day 7. […] Animals were subsequently treated b.i.d. with inhibitor compound or vehicle alone. After 18 days of treatment, hind paw bone structure and integrity were evaluated by X-rays, histopathology, and serum bone marker COMP.

Structure (SMILES): COc1cc(Nc2ncc(F)c(Nc3ccc4c(n3)NC(=O)C(C)(C)O4)n2)cc(OC)c1OC [compound 1007, N4-(2,2-dimethyl-3-oxo-4H-5-pyrid[1,4]oxazin-6-yl)-5-fluoro-N2-(3,4,5-trimethoxyphenyl)-2,4-pyrimidinediamine]
- severity of bone destruction (histopathological assessment of bone sections) ([1]; FIG. 2): significant reduction in severity of bone destruction
- bone erosion (safranin-O stained sections of hind ankle paws) ([1]; FIG. 3, magnification 40x): reduction
- osteoclast activity (safranin-O stained sections of hind ankle paws) ([1]; FIG. 3, magnification 40x): reduction
- pannus formation (safranin-O stained sections of hind ankle paws) ([1]; FIG. 3, magnification 40x): reduction
- serum levels of cartilage oligometrix matrix protein (COMP), a marker for collagen destruction [2]: reduction
- bone erosion (radiograph score of hind paws) ([3]; 10 mg/kg, p<0.05): significant reduction in bone erosion
- bone erosion (radiograph score of hind paws) ([3]; 30 mg/kg, p<0.001): significant reduction in bone erosion
